Some test systems named below: IGROV1 ovarian; LOX IMVI melanoma; OVCAR-8 ovarian; SF-268 CNS; SF-295 CNS; SK-MEL-5 melanoma; SK-OV-3 ovarian; UACC-257 melanoma; DU-145 prostate; NCI/ADR-RES ovarian; HS 578T breast.
What all share (experiment): NCI tumour cell line growth inhibition, 48 h

The record followed here is PubChem BioAssay (NCI).

Converted amounts (≈) assume the structure as drawn. “And” between values parts separate entries of the source, which are not always exact repeats. Equal entries are not always repeated.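 1) Cells in 96-well plates. 2) Compound, 48 h, 5 concentrations. 3) Linear interpolation between surrounding doses. 4) Unreached endpoint = highest concentration. At the GI50, growth is halved. TGI: concentration producing complete growth inhibition.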

As to `CSc1ccc2c(cc1=O)[C@@H](NC(=O)c1ccc(F)cc1)CCc1cc(O)c(O)c(O)c1-2`, the TGI in the experiment with IGROV1 ovarian, with LOX IMVI melanoma, in the experiment on OVCAR-8 ovarian, with SF-268 CNS, in the experiment with SF-295 CNS and in the experiment on SK-MEL-5 melanoma was greater than 100 µM throughout. The TGI in the experiment on SK-OV-3 ovarian and in the experiment with UACC-257 melanoma was greater than 100 µM throughout.
On to `CC(C)(C)NC1C2CCC(C)(C1O)C2(C)C` (centres undefined), for which the TGI in the experiment on DU-145 prostate, with IGROV1 ovarian, in the experiment with LOX IMVI melanoma, in the experiment with NCI/ADR-RES ovarian, in the experiment with OVCAR-8 ovarian and in the experiment on SF-268 CNS was greater than 100 µM each time. The TGI in the experiment on SF-295 CNS, with SK-MEL-5 melanoma, with SK-OV-3 ovarian and with UACC-257 melanoma was greater than 100 µM in each case.
With `O=C(Nc1c(Cl)cc([N+](=O)[O-])cc1Cl)/C(=N\Nc1cccc(Cl)c1)c1c(O)c2ccccc2oc1=O`, the TGI in the experiment with IGROV1 ovarian, in the experiment on OVCAR-8 ovarian, with SF-268 CNS, with SF-295 CNS, in the experiment on SK-MEL-5 melanoma and in the experiment on SK-OV-3 ovarian was greater than 100 µM each time. In addition, in the experiment with UACC-257 melanoma, the TGI is greater than 100 µM.
Regarding `COc1cccc(-n2c(N)c(-c3nc4cc(C(F)(F)F)ccc4s3)c3ccc([N+](=O)[O-])cc3c2=O)c1`, the TGI with DU-145 prostate, in the experiment with NCI/ADR-RES ovarian, with SF-268 CNS, with SF-295 CNS, with SK-MEL-5 melanoma and in the experiment with SK-OV-3 ovarian was greater than 100 µM throughout. In the experiment with UACC-257 melanoma, this molecule showed a TGI greater than 100 µM.
`COc1ccc([C@@H]2CC(=O)NCCCCNCCCN2)cc1`: the TGI in the experiment on IGROV1 ovarian, with OVCAR-8 ovarian, with SF-268 CNS, in the experiment on SF-295 CNS, with SK-MEL-5 melanoma and in the experiment on SK-OV-3 ovarian was greater than 100 µM each time. This molecule showed a TGI in the experiment with UACC-257 melanoma greater than 100 µM.
`COc1cc([C@@H]2c3cc4c(c(O)c3C[C@H]3COC(=O)[C@@H]32)OCO4)cc(OC)c1O`: the GI50 in the experiment on IGROV1 ovarian is 0.00276 µM; in the experiment on LOX IMVI melanoma, 0.00394 µM and 0.0367 µM; in the experiment with OVCAR-8 ovarian, 0.0053 µM; with SF-268 CNS, 0.0043 µM; in the experiment with SF-295 CNS, 0.00304 µM; in the experiment with SK-MEL-5 melanoma, 0.00221 µM. In addition, the GI50 in the experiment with UACC-257 melanoma is 0.005 µM. In addition, the TGI was greater than 128 µM with IGROV1 ovarian; greater than 200 µM in the experiment with LOX IMVI melanoma; greater than 200 µM in the experiment with OVCAR-8 ovarian; greater than 200 µM with SF-268 CNS; less than 0.02 µM in the experiment on SF-295 CNS; 0.00624 µM and < 0.02 µM in the experiment on SK-MEL-5 melanoma. Besides, in the experiment with UACC-257 melanoma, the TGI was greater than 20 µM.
Turning to `CN1OC2OC(=O)OC2[C@H]1[C@H]1O[C@H](c2ccccc2)OC1(C)c1cc(OC(=O)c2ccccc2)ccc1OC(=O)c1ccccc1` (some centres undefined), the TGI in the experiment on IGROV1 ovarian, in the experiment on LOX IMVI melanoma, with OVCAR-8 ovarian, in the experiment with SF-268 CNS, in the experiment with SK-MEL-5 melanoma and with SK-OV-3 ovarian was greater than 50 µM throughout. For the same molecule, the TGI in the experiment on UACC-257 melanoma was greater than 50 µM.
Turning to `CC(=O)NC(CCCCNC(=O)N(C)N=O)C(=O)NCc1ccccc1` (centres undefined), the TGI in the experiment on IGROV1 ovarian, in the experiment on LOX IMVI melanoma, in the experiment with OVCAR-8 ovarian, with SF-268 CNS, with SF-295 CNS and in the experiment on SK-MEL-5 melanoma was greater than 100 µM in each case. Further, the TGI in the experiment on SK-OV-3 ovarian and in the experiment on UACC-257 melanoma was greater than 100 µM throughout.
With `Cc1cc(NCCCCCCNc2cc(C)nc3ccc(Cl)cc23)c2cc(Cl)ccc2n1`, the TGI in the experiment with LOX IMVI melanoma is 28.7 µM; in the experiment with OVCAR-8 ovarian, 39.1 µM; with SF-268 CNS it was 32.5 µM; in the experiment with SF-295 CNS it was 31.2 µM; in the experiment on SK-MEL-5 melanoma it was 32.8 µM; in the experiment on SK-OV-3 ovarian, greater than 100 µM. Also, the TGI in the experiment with UACC-257 melanoma is 44.9 µM.
In the case of `N/N=C(\C(=O)Nc1ccc([N+](=O)[O-])cc1)C(C1=Nc2cc([N+](=O)[O-])ccc2NC1)[N+](=O)[O-]` (centres undefined), the TGI in the experiment with HS 578T breast, in the experiment on IGROV1 ovarian, in the experiment on LOX IMVI melanoma, in the experiment with NCI/ADR-RES ovarian, with OVCAR-8 ovarian and with SF-268 CNS was greater than 100 µM each time. The TGI with SF-295 CNS, in the experiment on SK-MEL-5 melanoma, with SK-OV-3 ovarian and in the experiment on UACC-257 melanoma was greater than 100 µM in each case.
Turning to `Nc1ccc(N)c2c1C(=O)c1c(N)ccc(N)c1C2=O`, the TGI is greater than 100 µM in the experiment with IGROV1 ovarian; greater than 31.6 µM in the experiment with LOX IMVI melanoma; greater than 100 µM in the experiment with OVCAR-8 ovarian; greater than 100 µM with SF-268 CNS; greater than 100 µM in the experiment with SF-295 CNS; greater than 100 µM in the experiment with SK-MEL-5 melanoma. Besides, the TGI with SK-OV-3 ovarian and with UACC-257 melanoma was greater than 100 µM in each case.
Consider `O=C(CSc1nnc(-c2ccc(N=Cc3ccc(Cl)cc3)cc2)o1)Nc1cccc(Cl)c1`, for which the TGI in the experiment with LOX IMVI melanoma, in the experiment on OVCAR-8 ovarian, with SF-268 CNS, in the experiment on SF-295 CNS, in the experiment with SK-MEL-5 melanoma and in the experiment on SK-OV-3 ovarian was greater than 100 µM in each case. Moreover, in the experiment with UACC-257 melanoma, the TGI was greater than 100 µM.
Take `S=C(Nc1ccccc1)N1N=C2c3ccccc3CC[C@H]2[C@@H]1c1ccccc1`: the TGI in the experiment with IGROV1 ovarian, in the experiment with LOX IMVI melanoma, in the experiment on OVCAR-8 ovarian, in the experiment with SF-268 CNS, in the experiment with SK-OV-3 ovarian and in the experiment on UACC-257 melanoma was greater than 100 µM in each case.
Turning to `NC(N)=Nc1nc2ccccc2[nH]1`, the GI50 in the experiment on IGROV1 ovarian is 23.7 mg/L; in the experiment with LOX IMVI melanoma, 43.8 mg/L; in the experiment with NCI/ADR-RES ovarian, 6.44 mg/L (≈ 36.8 µM); with OVCAR-8 ovarian it was 76.5 mg/L; in the experiment with SF-268 CNS, 128 mg/L; in the experiment on SF-295 CNS, 34.4 mg/L. Further, the GI50 with SK-MEL-5 melanoma was 31.1 mg/L; with SK-OV-3 ovarian it was 150 mg/L (≈ 856 µM); in the experiment with UACC-257 melanoma it was 72.4 mg/L. Also, the TGI in the experiment on IGROV1 ovarian is greater than 150 mg/L; with LOX IMVI melanoma it was greater than 150 mg/L; in the experiment on NCI/ADR-RES ovarian, greater than 150 mg/L; with OVCAR-8 ovarian, greater than 150 mg/L; in the experiment on SF-268 CNS, greater than 150 mg/L; in the experiment with SF-295 CNS, 111 mg/L. Besides, the TGI in the experiment on SK-MEL-5 melanoma is 99 mg/L; in the experiment with SK-OV-3 ovarian it was greater than 150 mg/L; in the experiment on UACC-257 melanoma, greater than 150 mg/L.
